Assay results reported in article PMC7883289, “Synthesis of Paeonol-Ozagrel Conjugate: Structure Characterization and In Vivo Anti-Ischemic Stroke potential” (Frontiers in Pharmacology, 2021).

Columns and labels:
[1] = Partition coefficient, shake-flask method (n-octanol / aqueous phase); format: physicochemical; conditions: n-octanol / aqueous phase buffered with phosphate pH 7.4, shake-flask, HPLC
Method: The partition coefficient of POC was established by the shake-flask method between n–octanol and an aqueous phase ([Redasani and Bari, 2012]). The aqueous phase buffered with phosphate (pH 7.4, 100 ml) and n–octanol (100 ml) was mixed well, placed in a shaking air bath for 72 h, and then left to equilibrate until the two saturated phases completely separated. POC (5 mg) was dissolved in 50 ml of saturated n-octanol and diluted with the saturated aqueous equally. The mixture was placed in an oscillator and shaken for 1 h until the two phases separated. Concentration was analyzed by HPLC method and then the partition coefficient was calculated as the ratio of the concentration of POC in n–octanol to aqueous. All experiments were made in triplicate.

SOD and MDA = assay: Oxidative stress biomarker assay (SOD, MDA) in brain tissue of MCAO rats; format: in vivo; conditions: whole brain homogenate, POC 4.5 mg/kg iv compared with the paeonol and OS groups (3 mg/kg iv), n = 6
Method: Male Sprague Dawley (SD) rats weighing among 220 g–230 g (Anhui Medicine University, Hefei, China; certificate number: SCXK20190,003) were housed under ad libitum access to food and water with a standardized light-dark cycle condition (25 ± 2°C, 12–hour light/dark cycle). All the experimental protocols were performed in accordance with the Institutional Animal Care and Use Committee of Anhui University of Chinese Medicine (Animal ethics number: AHUCM–rats–2019001). We used the minimal number of study animals (n = 6 rats in each group for different experiments). The rats were fastened upon the operating table in a supine position after being anesthetized with 2% pelltobarbitalum natricum (50 mg/kg). After disinfection of the skin within close proximity of the operative region, the right common carotid artery (CCA), external carotid artery (ECA) and internal carotid artery (ICA) were exposed with blunt dissection. The CCA was temporarily ligated and the ECA were permanently ligated ([Liu et al., 2016]). A nylon monofilament surgical thread was introduced into the ICA to block the MCA when the blunted distal end met resistance. After 2 h of occlusion, reperfusion was accomplished to restore blood supply to the MCA area by removing the filament ([Li et al., 2009]; [Zhai et al., 2017]). […] A microplate reader was used to measure the absorbance at 450 and 532 nm with a UV spectrophotometer. […]

TXA2 = assay: ELISA assay for TXA2 in brain tissue and blood of MCAO rats; format: in vivo; conditions: paeonol and OS 3 mg/kg, POC 4.5 mg/kg iv, n = 6
Method: Male Sprague Dawley (SD) rats weighing among 220 g-230 g (Anhui Medicine University, Hefei, China; certificate number: SCXK20190,003) were housed under ad libitum access to food and water with a standardized light-dark cycle condition (25 ± 2°C, 12-hour light/dark cycle). All the experimental protocols were performed in accordance with the Institutional Animal Care and Use Committee of Anhui University of Chinese Medicine (Animal ethics number: AHUCM-rats-2019001). We used the minimal number of study animals (n = 6 rats in each group for different experiments). The rats were fastened upon the operating table in a supine position after being anesthetized with 2% pelltobarbitalum natricum (50 mg/kg). After disinfection of the skin within close proximity of the operative region, the right common carotid artery (CCA), external carotid artery (ECA) and internal carotid artery (ICA) were exposed with blunt dissection. The CCA was temporarily ligated and the ECA were permanently ligated ([Liu et al., 2016]). […] According to the manufacturer's instructions, the levels of inflammatory cytokines (IL - 6, IL-1β, TNF-α; R&D Systems, Minneapolis, MN, United States) and TXA2 (Wuhan ColorfulGene Biological Technology Co., LTD) were detected using the commercial ELISA kits. The resultant colored products were measured the absorbance at 450 nm. […]

logD [1]: 0.425
SMILES: COc1ccc(C(C)=O)c(OC(=O)C=Cc2ccc(Cn3ccnc3)cc2)c1 [POC, paeonol-ozagrel conjugate]
MDA levels in brain tissue (SOD and MDA): lowest MDA levels
SOD levels in brain tissue (SOD and MDA): highest SOD levels
levels of TXA2 in blood (plasma) (TXA2; blood/plasma): decreasing levels
levels of TXA2 in brain (TXA2; brain tissue): decreasing levels
